In patent US8003630B2, “Combinatorial therapies for the treatment of neoplasias using the opioid growth factor receptor” (The Penn State Research Foundation, priority 2004, dated 2011):
Marks after values point to notes of the source that are not given here.

Experiments:
SCC-1 cells [1] = assay: Cell proliferation assays of SCC-1 cells (MTS or cell counting), Example 8; assay type: cell-based, human; conditions: for decrease from control levels in absorbency readings: opioids 10^−6 M daily; for reduction of cell number from control levels: SCC-1, MTS, carboplatin 10^−7 M
Protocol: The UM-SCC-1 cell line (SCC-1) was derived from a well-differentiated recurrent squamous cell carcinoma in the floor of the mouth of a person (25). This cell line was obtained from The University of Michigan, Cancer Research Laboratory (Thomas E. Carey, Ph.D., Director). CAL-27 human squamous cell carcinoma cell line, derived from a poorly differentiated carcinoma of the tongue in a person ([…]), was obtained from the American Type Culture Collection (Manassas, Va.). Both cell lines were grown in Dulbecco's MEM (modified) media supplemented with 10% fetal calf serum, 1.2% sodium bicarbonate, and antibiotics (5,000 Units/ml penicillin, 5 mg/ml streptomycin, 10 mg/ml neomycin). The cell cultures were maintained in a humidified atmosphere of 7% CO2/93% air at 37° C.
Cells were seeded at equivalent amounts into either 6-well or 96-well plates (Falcon) and counted 24 hr later to determine plating efficiency.
The dosage of carboplatin selected was based on previous reports (27, 28), as well as preliminary studies in our laboratory.
Cell number was recorded either by using the MTS proliferation bioassay (Cell Titer 96 One Solution, Promega, Madison, Wis.) and measuring absorbency after 4 hr on a Biorad (Model 3550) plate reader at 490 nm with a 750 nm background absorbance screening, or by directly counting cells. The MTS assay utilized 10 wells/treatment. For manual counts, cells were harvested by trypsinization with 0.25% trypsin/0.53 mM EDTA, centrif uiged, and counted with a hemacytometer. Cell viability was determined by trypan blue staining. At least two aliquots per well, and 4-10 wells/treatment, were counted at each time for manual counting.
For some experiments, the rate of growth over a 96-hr period of time was calculated using linear regression analyses. The slopes of the lines (number of cells/hr) were compared by analysis of variance. All calculations were performed with GraphPad Prism software.

MIA PaCa-2 cells [2] = assay: Growth assays of MIA PaCa-2 cells (MTS assay or cell counting), Example 7; assay type: cell-based, human; conditions: for inhibition of cell number relative to controls: opioids 10^−6 M daily; for decrease in cell number relative to controls: OGF 10^−6 M and/or gemcitabine 10^−8 M
Protocol: (§1) MIA PaCa-2 and PANC-1 human pancreatic adenocarcinoma cell lines were purchased from the American Type Culture Collection (Manasass, Va.). MIA PaCa-2 cells were derived from an undifferentiated epithelial carcinoma occurring in the body and tail of the pancreas in a person. The PANC-1 cells were derived from an undifferentiated carcinoma from the head of the pancreas in a person. MIA PaCa-2 and PANC-1 cells were grown in Dulbecco's MEM (modified) media; media was supplemented with 10% fetal calf serum, 1.2% sodium bicarbonate, and antibiotics (5,000 Units/ml penicillin, 5 mg/ml streptomycin, 10 mg/ml neomycin), and the cells were maintained in a humidified atmosphere of 7% CO2/93% air at 37° C.
MIA PaCa-2 cells were seeded at equivalent amounts into either 75 cm^2 flasks, 6-well plates, or 96-well plates (Falcon) and counted 24 hr later to determine plating efficiency. Growth assays for PANC-1 cells were conducted in 6-well plates (Falcon). Compounds or sterile water were added beginning 24 hr after seeding (=0 hr), and both media and compounds were replaced daily. All drugs were prepared in sterile water and dilutions represent final concentrations of the compounds.
(§2) Cell number was recorded either by using a mitogenic bioassay, the MTS assay (Cell Titer 96 One Solution, Promega, Madison, Wis.), and measuring absorbency after 4 hr on a Biorad (Model 3550) plate reader at 490 nm, or by counting cells. For manual counts, cells were harvested with a solution of 0.25% trypsin/0.53 mM EDTA, centrif uiged, and counted with a hemacytometer. Cell viability was determined by trypan blue staining. At least two aliquots per flask or 4-10 wells/treatment were counted at each time.

SCC-1 cells [3] = assay: Growth curves of SCC-1 cells, cell proliferation (MTT) assay, absorbency
Text: Cells were counted using a standard MTT assay. In general, each data point represents the average absorbency taken from 10 wells/treatment; error bars represent the S.E.M.

MiaPaCa-2 cells [4] = assay: Gemcitabine growth curve, actual cell counts; assay type: cell-based, human; conditions: MiaPaCa-2 cell counts
MIA PaCa-2 cells [5] = assay: MIA PaCa-2 xenograft in nude mice, tumor appearance, growth and termination day measurements (Example 7); assay type: in vivo, BALB/c-nu/nu nude mice
Text: Male 4 week old BALB/c-nu/nu nude mice purchased from Harlan Laboratories (Indianapolis, Ind.) were housed in pathogen-free isolators in the Department of Comparative Medicine at the Penn State University College of Medicine. All procedures were approved by the IACUC committee of the Penn State University College of Medicine and conformed to the guidelines established by NIH. Mice were allowed 48 hr to acclimate prior to beginning experimentation.
MIA PaCa-2 cells (10^6 cells/mouse) were inoculated into nude mice by subcutaneous injection into the right scapular region; mice were not anesthetized for this procedure.
All drugs were dissolved in saline and prepared weekly. Injections were given within 1 hr of tumor cell inoculation.
Mice were weighed weekly throughout the experiment, and observed daily for the presence of tumors. The latency for a visible tumor to appear, and the time until tumors were measurable (i.e., 62.5 mm^3) were recorded. Tumors were measured using calipers every day after tumor appearance. Tumor volume was calculated using the formula w^2×1×π/6, where the length is the longest dimension, and width is the dimension perpendicular to length.
According to IACUC guidelines, mice were terminated when tumors became ulcerated, or tumors grew to 2 cm in diameter. Forty-five days following tumor cell inoculation, all mice were euthanized by an overdose of sodium pentobarbital (100 mg/kg) and killed by cervical dislocation; mice (with tumors) were weighed. Tumors and spleens were removed and weighed, and the lymph nodes, liver, and spleen examined for metastases.

MiaPaCa-2 cells [6] = assay: OGF/gemcitabine treatment in athymic nude mouse model (Example 5); assay type: in vivo, athymic nude mice; conditions: day 16 after tumor cell inoculation
Text: To examine the effectiveness of the combined OGF/gemcitabine treatments in vivo, an athymic nude mouse model was used.

MiaPaCa-2 cells [7] = assay: Gemcitabine and OGF cell cycle phase analysis by flow cytometry; assay type: cell-based, human
Protocol: To investigate the exact cell cycle phase where gemcitabine and/or OGF exerted their effects, flow cytometry was performed.

PANC-1 cells = assay: Growth assay of PANC-1 cells in 6-well plates; assay type: cell-based, human; conditions: 72 hr, OGF 10^−6 M and/or gemcitabine 10^−8 M
Protocol: as §1
MIA PaCa-2 cells were seeded at equivalent amounts into either 75 cm^2 flasks, 6-well plates, or 96-well plates (Falcon) and counted 24 hr later to determine plating efficiency. […]
as §2

Compound: CC(C)C[C@@H](NC(=O)[C@H](Cc1ccccc1)NC(=O)CNC(=O)[C@@H](C)NC(=O)[C@@H](N)Cc1ccc(O)cc1)C(=O)O [DADLE, [D-Ala-D-Leu-enkephalin]]
- decrease from control levels in absorbency readings (SCC-1 cells [1]; SCC-1): none of the drugs utilized had any inhibitory or stimulatory effect on growth
- inhibition of cell number relative to controls (MIA PaCa-2 cells [2]; MIA PaCa-2, 96 hr): none of the other drugs utilized had any inhibitory or stimulatory effect on growth

Compound: C[C@@H](NC(=O)[C@@H](N)Cc1ccc(O)cc1)C(=O)NCC(=O)N(C)[C@@H](Cc1ccccc1)C(=O)NCCO [DAMGO, [D-Ala^2, MePhe^4, Glyol^5]-enkephalin]
- decrease from control levels in absorbency readings (SCC-1 cells [1]; SCC-1): none of the drugs utilized had any inhibitory or stimulatory effect on growth
- inhibition of cell number relative to controls (MIA PaCa-2 cells [2]; MIA PaCa-2, 96 hr): none of the other drugs utilized had any inhibitory or stimulatory effect on growth

Compound: N.N.O=C([O-])C1(C(=O)[O-])CCC1.[Pt+2] [carboplatin]
- decrease in cell number relative to controls (SCC-1 cells [3]; 48 h, carboplatin 10^−6 M and/or OGF 10^−6 M): 5.3%
- decrease in cell number relative to controls (SCC-1 cells [3]; 72 h, carboplatin 10^−6 M and/or OGF 10^−6 M): 21.8%
- decrease in cell number relative to controls (SCC-1 cells [3]; 72 h, carboplatin 10^−7 M alone or with OGF 10^−6 M): 18.7%
- decrease in cell number relative to controls (SCC-1 cells [3]; 96 h, carboplatin 10^−6 M and/or OGF 10^−6 M): 24.9%
- decrease in cell number relative to controls (SCC-1 cells [3]; 96 h, carboplatin 10^−7 M alone or with OGF 10^−6 M): 21%
- reduction of cell number from control levels (SCC-1 cells [1]; 72 hr): 19%
- reduction of cell number from control levels (SCC-1 cells [1]; 96 hr): 21%

Compound: Nc1ccn([C@@H]2O[C@H](CO)[C@@H](O)C2(F)F)c(=O)n1 [gemcitabine]
- decrease in cell number relative to controls (MiaPaCa-2 cells [4]; 24 h, gemcitabine 10^−7 M or OGF 10^−6 M alone): 30.1%
- decrease in cell number relative to controls (MiaPaCa-2 cells [4]; 48 h, gemcitabine 10^−7 M or OGF 10^−6 M alone): 46.4%
- decrease in cell number relative to controls (MiaPaCa-2 cells [4]; 48 h, gemcitabine 10^−8 M alone or with OGF 10^−6 M): 21.7%
- decrease in cell number relative to controls (MiaPaCa-2 cells [4]; 72 h, gemcitabine 10^−7 M or OGF 10^−6 M alone): 47.7%
- decrease in cell number relative to controls (MiaPaCa-2 cells [4]; 72 h, gemcitabine 10^−8 M alone or with OGF 10^−6 M): 21.2%
- decrease in cell number relative to controls (MiaPaCa-2 cells [4]; 96 h, gemcitabine 10^−7 M or OGF 10^−6 M alone): 64.2%
- decrease in cell number relative to controls (MiaPaCa-2 cells [4]; 96 h, gemcitabine 10^−8 M alone or with OGF 10^−6 M): 32.4%
- day from which tumor volume differed from controls (MIA PaCa-2 cells [5]; at least p<0.05): 14 days
- mice with measurable tumors (MIA PaCa-2 cells [5]; day 10): 75%
- tumor volumes decreased from control values (MIA PaCa-2 cells [5]; day 45): 56%
- weight of the spleen decreased from control values (MIA PaCa-2 cells [5]; day 45): approximately 40%
- Body Weight (MIA PaCa-2 cells [5]; day 45, means ± SEM): 27.4 ± 0.55 g
- Spleen Weight (MIA PaCa-2 cells [5]; day 45, means ± SEM): 454 ± 49 mg
- Tumor Volume, mm^3 (MIA PaCa-2 cells [5]; day 45, means ± SEM): 3963 ± 123*** mm^3
- Tumor Weight (MIA PaCa-2 cells [5]; day 45, means ± SEM): 2.4 ± 0.1 g
- Latency to measurable tumor (MIA PaCa-2 cells [5]; means ± SEM): 13.1 ± 1.0 days
- Latency to visible tumor (MIA PaCa-2 cells [5]; means ± SEM): 11.1 ± 1.1 days
- Tumor Incidence, day 16 (MIA PaCa-2 cells [5]; mice with tumor/N): 11/12
- Tumor Incidence, day 10 (MIA PaCa-2 cells [5]; mice with tumor/N, OGF 10 mg/kg daily and/or gemcitabine 120 mg/kg every 3 days i.p.): 9/12
- weights of tumors decreased from control levels (MIA PaCa-2 cells [5]; termination day (day 45)): 56%
- mice with tumors (MiaPaCa-2 cells [6]): 75%
- inhibition at 0.01 µM (MIA PaCa-2 cells [2]; Homo sapiens, MIA PaCa-2, 96 h, read-out: inhibition of cell growth relative to control levels): 13 to 36%
- decrease in cell number relative to controls (MIA PaCa-2 cells [2]; MIA PaCa-2, 48 hr): 22%
- decrease in cell number relative to controls (MIA PaCa-2 cells [2]; MIA PaCa-2, 72 hr): 21%
- difference in cell number between reversal group and group continuing drug exposure (MIA PaCa-2 cells [2]; MIA PaCa-2, 96 hr (48 hr after reversal)): did not differ
- decrease in cell number relative to controls (MIA PaCa-2 cells [2]; MIA PaCa-2, 96 hr): 32%
- cells in the G1 phase of the cell cycle (MiaPaCa-2 cells [7]; 48 hours of treatment): 73.50%
- cells in the G1 phase of the cell cycle (MiaPaCa-2 cells [7]; 120 hours of treatment): 60.75%
- fewer cells than in control cultures (PANC-1 cells): 31%

Compound: CN1CC[C@]23c4c5ccc(O)c4O[C@H]2[C@@H](O)C=C[C@H]3[C@H]1C5 [morphine]
- decrease from control levels in absorbency readings (SCC-1 cells [1]; SCC-1): none of the drugs utilized had any inhibitory or stimulatory effect on growth
- inhibition of cell number relative to controls (MIA PaCa-2 cells [2]; MIA PaCa-2, 96 hr): none of the other drugs utilized had any inhibitory or stimulatory effect on growth

Compound: C=CCN1CC[C@]23c4c5ccc(O)c4O[C@H]2C(=O)CC[C@@]3(O)[C@H]1C5 [naloxone]
- effect of naloxone on growth and growth inhibition (SCC-1 cells [1]; SCC-1, naloxone 10^−6 M): had no effect on growth
- effect of naloxone on growth and growth inhibition (MIA PaCa-2 cells [2]; MIA PaCa-2, 96 hr, naloxone 10^−6 M): had no effect on the growth of MIA PaCa-2 cells

Compound: [D-Pen^2,5]-enkephalin [DPDPE]
- decrease from control levels in absorbency readings (SCC-1 cells [1]; SCC-1): none of the drugs utilized had any inhibitory or stimulatory effect on growth
- inhibition of cell number relative to controls (MIA PaCa-2 cells [2]; MIA PaCa-2, 96 hr): none of the other drugs utilized had any inhibitory or stimulatory effect on growth

Compound: dynorphin 1-13 (YGGFLRRIRPKLK; Dynorphin A(1-13); UniProt P01213 207-219, looked up, fragment)
- decrease from control levels in absorbency readings (SCC-1 cells [1]; SCC-1): none of the drugs utilized had any inhibitory or stimulatory effect on growth

Compound: dynorphin A1-8 (YGGFLRRI; Dynorphin A(1-8); UniProt P01213 207-214, looked up, fragment)
- inhibition of cell number relative to controls (MIA PaCa-2 cells [2]; MIA PaCa-2, 96 hr): none of the other drugs utilized had any inhibitory or stimulatory effect on growth

Compound: endomorphin-1
- decrease from control levels in absorbency readings (SCC-1 cells [1]; SCC-1): none of the drugs utilized had any inhibitory or stimulatory effect on growth
- inhibition of cell number relative to controls (MIA PaCa-2 cells [2]; MIA PaCa-2, 96 hr): none of the other drugs utilized had any inhibitory or stimulatory effect on growth

Compound: endomorphin-2
- decrease from control levels in absorbency readings (SCC-1 cells [1]; SCC-1): none of the drugs utilized had any inhibitory or stimulatory effect on growth
- inhibition of cell number relative to controls (MIA PaCa-2 cells [2]; MIA PaCa-2, 96 hr): none of the other drugs utilized had any inhibitory or stimulatory effect on growth

Compound: β-endorphin (YGGFMTSEKSQTPLVTLFKNAIIKNAYKKGE; Beta-endorphin; UniProt P01189 237-267, looked up)
- decrease from control levels in absorbency readings (SCC-1 cells [1]; SCC-1): none of the drugs utilized had any inhibitory or stimulatory effect on growth
- inhibition of cell number relative to controls (MIA PaCa-2 cells [2]; MIA PaCa-2, 96 hr): none of the other drugs utilized had any inhibitory or stimulatory effect on growth
